Test systems include K-562 leukemia; NCI-H522 lung; HCC-2998 colon; MDA-MB-231 breast; CAKI-1 renal; OVCAR-5 ovarian; HOP-62 NSCLC; RPMI-8226 leukemia; HCT-116 colon; SW-620 colon.
Common to all, as to assay: NCI-60 cell line screen, 48 h

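Five compound concentrations were applied to cells in 96-well plates for 48 hours; endpoints were derived by simple linear interpolation of the resulting dose-response curve. TGI is the concentration that stops growth completely.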

Regarding `COC(=O)C([C@H](NC1(c2ccccc2)c2ccccc2-c2ccccc21)C(=O)OC)N(NC(=O)OCc1ccccc1)C(=O)OCc1ccccc1` (mixture of isomers), the TGI in the assay with K-562 leukemia, in the assay with NCI-H522 lung, in the assay on HCC-2998 colon, in the assay on MDA-MB-231 breast, in the assay with CAKI-1 renal and with OVCAR-5 ovarian was over 100 µM in each case. For the same compound, the TGI in the assay on HOP-62 NSCLC, in the assay on RPMI-8226 leukemia, with HCT-116 colon and in the assay on SW-620 colon was over 100 µM in each case.

Consider `CC[C@@H]1CC[C@@H]2[C@H](CC[C@]3(C)[C@@H](OC(C)=O)CC[C@@H]23)[C@H]1COC(C)=O`, for which the TGI in the assay on K-562 leukemia is 36.2 µM; with NCI-H522 lung, 56.1 µM; in the assay with HCC-2998 colon it was 33.4 µM; in the assay with MDA-MB-231 breast, 56.6 µM; in the assay on CAKI-1 renal, over 100 µM; with OVCAR-5 ovarian it was 73.8 µM. Further, the TGI was over 100 µM in the assay on HOP-62 NSCLC, 48.7 µM in the assay with RPMI-8226 leukemia, 31.7 µM in the assay with HCT-116 colon and over 100 µM with SW-620 colon.

Take `CC(=O)O[C@@H]1[C@H](C(C)C)[C@@H](OC(C)=O)C/C(C)=C/CC[C@]2(C)O[C@@H]12`: the TGI with K-562 leukemia, in the assay on NCI-H522 lung, in the assay with HCC-2998 colon, in the assay with MDA-MB-231 breast, with CAKI-1 renal and in the assay with OVCAR-5 ovarian was over 100 µM throughout. The TGI with HOP-62 NSCLC, with RPMI-8226 leukemia, in the assay with HCT-116 colon and in the assay with SW-620 colon was over 100 µM in each case.

Turning to `COc1cc2nc3n(c(=O)c2cc1OC)-c1ccc([N+](=O)[O-])cc1C3=O`, the TGI in the assay on K-562 leukemia was over 100 µM; in the assay on NCI-H522 lung it was over 100 µM; in the assay with HCC-2998 colon, over 100 µM; in the assay on MDA-MB-231 breast it was over 100 µM; in the assay on CAKI-1 renal, 92.1 µM; in the assay with OVCAR-5 ovarian, over 100 µM. Further, the TGI is over 100 µM in the assay on HOP-62 NSCLC, over 100 µM in the assay with RPMI-8226 leukemia, over 100 µM in the assay on HCT-116 colon and 62.2 µM in the assay on SW-620 colon.

As for `O=C(N/N=C(/COc1ccc(Cl)cc1)N=Cc1ccncc1)c1ccncc1`, the TGI with K-562 leukemia, in the assay on NCI-H522 lung, with HCC-2998 colon, in the assay on MDA-MB-231 breast, with CAKI-1 renal and with OVCAR-5 ovarian was over 100 µM throughout. In addition, the TGI in the assay on HOP-62 NSCLC, in the assay on RPMI-8226 leukemia, in the assay with HCT-116 colon and with SW-620 colon was over 100 µM each time.

For `CC(=O)OC1CC(OC2C(O)CC(OC3C(O)CC(OC4CCC5(C)C(CCC6C5CC(O)C5(C)C(C7=CC(=O)OC7)CCC65O)C4)OC3C)OC2C)OC(C)C1OC1OC(CO)C(O)C(O)C1O` (stereo not given), the TGI was over 100 µM in the assay with K-562 leukemia; 0.114 µM with NCI-H522 lung; 0.441 µM with HCC-2998 colon; 2.41 µM in the assay on MDA-MB-231 breast; 0.0904 µM in the assay with CAKI-1 renal; 0.222 µM in the assay on OVCAR-5 ovarian. Also, the TGI is 0.0956 µM in the assay on HOP-62 NSCLC, 25.7 µM in the assay on RPMI-8226 leukemia, 0.139 µM in the assay on HCT-116 colon and 0.252 µM in the assay with SW-620 colon.

With `CC(=O)NC(Cc1ccc(O)cc1)C(=O)O` (stereo not given), the TGI in the assay with K-562 leukemia, with NCI-H522 lung, in the assay with HCC-2998 colon, with MDA-MB-231 breast, with CAKI-1 renal and in the assay on OVCAR-5 ovarian was over 100 µM each time. Besides, the TGI with HOP-62 NSCLC, with RPMI-8226 leukemia, in the assay on HCT-116 colon and in the assay with SW-620 colon was over 100 µM each time.

Regarding `Cc1ccc(N=NC(=Nc2ccccc2)c2ccc(N(CCC#N)CCC#N)cc2)cc1`, the TGI is over 100 µM in the assay on K-562 leukemia; 45.2 µM in the assay on NCI-H522 lung; 48.6 µM in the assay with HCC-2998 colon; 55.8 µM in the assay on MDA-MB-231 breast; over 100 µM with CAKI-1 renal; over 100 µM with OVCAR-5 ovarian. In addition, the TGI in the assay on HOP-62 NSCLC, in the assay on RPMI-8226 leukemia, in the assay on HCT-116 colon and in the assay with SW-620 colon was over 100 µM in each case.

For `c1ccc(N=c2sc3ccccc3nc2Nc2ccccc2)cc1`, the TGI in the assay with K-562 leukemia, with NCI-H522 lung, in the assay with HCC-2998 colon, in the assay on MDA-MB-231 breast, with CAKI-1 renal and in the assay with OVCAR-5 ovarian was over 100 µM in each case. Moreover, the TGI in the assay with HOP-62 NSCLC, in the assay on RPMI-8226 leukemia, with HCT-116 colon and in the assay with SW-620 colon was over 100 µM in each case.

Consider `COc1cc2c(c(OC)c1OC)C(=O)[C@@H]1[C@H]2N1C(N)=O`, for which the TGI in the assay with K-562 leukemia, in the assay with NCI-H522 lung, in the assay with HCC-2998 colon, in the assay with MDA-MB-231 breast, in the assay with CAKI-1 renal and in the assay on OVCAR-5 ovarian was over 100 µM each time. In addition, the TGI with HOP-62 NSCLC, with RPMI-8226 leukemia, in the assay with HCT-116 colon and in the assay with SW-620 colon was over 100 µM throughout.

Regarding `CCCCCCc1cc2cc(-c3csc(CC#N)n3)c(=O)oc2cc1O`, the TGI in the assay on K-562 leukemia is over 100 µM; in the assay with NCI-H522 lung, over 100 µM; in the assay with HCC-2998 colon, over 100 µM; in the assay with MDA-MB-231 breast, 55.2 µM; in the assay with CAKI-1 renal it was over 100 µM; with OVCAR-5 ovarian it was over 100 µM. In addition, the TGI in the assay on HOP-62 NSCLC, with RPMI-8226 leukemia, in the assay on HCT-116 colon and in the assay with SW-620 colon was over 100 µM each time.

Regarding `COc1cc(Br)cc2cc(-c3cn4ccsc4n3)c(=O)oc12`, the TGI in the assay with K-562 leukemia is over 100 µM; in the assay with NCI-H522 lung, over 100 µM; in the assay on HCC-2998 colon, 24 µM; in the assay on MDA-MB-231 breast, 80.9 µM; in the assay on CAKI-1 renal, over 100 µM; with OVCAR-5 ovarian, over 100 µM. Moreover, the TGI with HOP-62 NSCLC, with RPMI-8226 leukemia, with HCT-116 colon and in the assay with SW-620 colon was over 100 µM throughout.

Turning to `Cc1ccccc1C(=O)N1CCc2c([nH]c3ccccc23)C1`, the TGI in the assay on K-562 leukemia amounted to 62.5 µM; with NCI-H522 lung it was 46.1 µM; in the assay on HCC-2998 colon, 33.9 µM; in the assay on MDA-MB-231 breast, 34.1 µM; with CAKI-1 renal, 79.5 µM; in the assay with OVCAR-5 ovarian, 76.3 µM. The TGI in the assay on HOP-62 NSCLC was over 100 µM; in the assay with RPMI-8226 leukemia, 51.3 µM; in the assay on HCT-116 colon, 33 µM; with SW-620 colon it was over 100 µM.

For the compound `COC(=O)c1c(C)cccc1C1CN=NC12Cc1ccc(C)cc1C2=O` (stereo not given), the TGI with K-562 leukemia is over 100 µM; with NCI-H522 lung, 91.9 µM; in the assay with HCC-2998 colon it was over 100 µM; in the assay on MDA-MB-231 breast, over 100 µM; in the assay on CAKI-1 renal, over 100 µM; in the assay on OVCAR-5 ovarian it was over 100 µM. Also, the TGI in the assay with HOP-62 NSCLC is over 100 µM; in the assay with RPMI-8226 leukemia, over 100 µM; in the assay on HCT-116 colon, 74 µM; in the assay with SW-620 colon, over 100 µM.

For the compound `O=C1C=CC(=O)c2c1ccc1c3ccccc3n(CCCCCCCCCCCCn3c4ccccc4c4ccc5c(c43)C(=O)C=CC5=O)c21`, the TGI in the assay with K-562 leukemia is over 100 µM; with NCI-H522 lung, over 100 µM; with HCC-2998 colon it was over 46.4 µM; in the assay on MDA-MB-231 breast it was over 100 µM; in the assay on CAKI-1 renal it was over 100 µM; in the assay with OVCAR-5 ovarian, over 100 µM. Further, the TGI in the assay with HOP-62 NSCLC, with RPMI-8226 leukemia, in the assay on HCT-116 colon and in the assay with SW-620 colon was over 100 µM each time.

For `CC(C)=CCc1c2c(c3occ(-c4ccc(O)cc4)c(=O)c3c1O)CC(C(C)(C)O)O2` (stereo not given), the TGI in the assay on K-562 leukemia was determined as 42.1 µM; in the assay with NCI-H522 lung, 34 µM; in the assay on HCC-2998 colon it was 23.2 µM; in the assay on MDA-MB-231 breast, 27.6 µM; with CAKI-1 renal, 35.7 µM; with OVCAR-5 ovarian, 33.8 µM. The TGI with HOP-62 NSCLC was 33.6 µM; in the assay on RPMI-8226 leukemia, 29.9 µM; in the assay with HCT-116 colon, 45.3 µM; in the assay on SW-620 colon it was 64.4 µM.

For the compound `N#CCCC1C(C#N)C2(Cl)CC1(Cl)C(Cl)=C2Cl` (stereo not given), the TGI in the assay on K-562 leukemia, in the assay with NCI-H522 lung, in the assay with HCC-2998 colon, in the assay with MDA-MB-231 breast, in the assay with CAKI-1 renal and in the assay with OVCAR-5 ovarian was over 10 µM throughout. In addition, the TGI with HOP-62 NSCLC, with RPMI-8226 leukemia, in the assay with HCT-116 colon and in the assay on SW-620 colon was over 10 µM in each case.

Turning to `C=C1C(=O)O[C@@H]2C(=O)[C@@H](C)CCC/C(C)=C/CC[C@@]3(C)O[C@@H]3C[C@@H]12`, the TGI was 34.8 µM in the assay with K-562 leukemia; 25.2 µM with NCI-H522 lung; over 100 µM in the assay with HCC-2998 colon; over 100 µM in the assay with MDA-MB-231 breast; 37.5 µM with CAKI-1 renal; over 100 µM in the assay on OVCAR-5 ovarian. Further, the TGI is over 100 µM in the assay with HOP-62 NSCLC, 54.1 µM in the assay on RPMI-8226 leukemia, 96.1 µM with HCT-116 colon and 43.4 µM in the assay with SW-620 colon.

In the case of `COc1ccc2cc(NC(=O)N/N=C\c3ccc([N+](=O)[O-])cc3)ccc2c1`, the TGI in the assay with K-562 leukemia was over 100 µM; in the assay on NCI-H522 lung, 51 µM; in the assay with HCC-2998 colon, over 100 µM; in the assay on MDA-MB-231 breast, over 100 µM; in the assay on CAKI-1 renal it was over 100 µM; in the assay with OVCAR-5 ovarian, over 100 µM. Also, the TGI was 48.5 µM in the assay on HOP-62 NSCLC, over 100 µM in the assay with RPMI-8226 leukemia, over 100 µM in the assay with HCT-116 colon and over 100 µM with SW-620 colon.

The record behind these values is PubChem BioAssay (NCI).
